# Data taken from ChEMBL document CHEMBL1697781, “Assessment of the health effects of chemicals in humans: II. Construction of an adverse effects database for QSAR modeling” (Curr Drug Discov Technol, 2004).
# What was measured:
# Settings in all cases: human; call rule not given here
# Hepatotoxicity [1] = test: FDA HLAED, alkaline phosphatase increase
# Hepatotoxicity [2] = test: FDA HLAED, lactate dehydrogenase (LDH) increase
# Hepatotoxicity [3] = test: FDA HLAED, gamma-glutamyl transferase (GGT) increase
# Hepatotoxicity [4] = test: FDA HLAED, serum glutamic pyruvic transaminase (SGPT) increase
# Hepatotoxicity [5] = test: FDA HLAED, liver enzyme composite activity
# Hepatotoxicity [6] = test: FDA HLAED, serum glutamic oxaloacetic transaminase (SGOT) increase
# Wherever GGT Increase - Index Value is given: reference of the scale not given here.
# Wherever LDH Increase - Index Value is given: reference of the scale not given here.
SMILES,Alkaline Phosphatase Increase - Activity Score (Hepatotoxicity [1]),Alkaline Phosphatase Increase - Index Value (Hepatotoxicity [1]),Alkaline Phosphatase Increase - Number of Reports (Hepatotoxicity [1]),LDH Increase - Activity Score (Hepatotoxicity [2]),LDH Increase - Index Value (Hepatotoxicity [2]),LDH Increase - Number of Reports (Hepatotoxicity [2]),GGT Increase - Activity Score (Hepatotoxicity [3]),GGT Increase - Index Value (Hepatotoxicity [3]),GGT Increase - Number of Reports (Hepatotoxicity [3]),SGPT Increase - Activity Score (Hepatotoxicity [4]),SGPT Increase - Index Value (Hepatotoxicity [4]),SGPT Increase - Number of Reports (Hepatotoxicity [4]),Composite Activity - Active (Hepatotoxicity [5]),Composite Activity - Marginal (Hepatotoxicity [5]),Composite Activity - Score (Hepatotoxicity [5]),SGOT Increase - Activity Score (Hepatotoxicity [6]),SGOT Increase - Index Value (Hepatotoxicity [6]),SGOT Increase - Number of Reports (Hepatotoxicity [6]),further results
N[C@@H](C(=O)N[C@@H]1C(=O)N2C(C(=O)O)=C(Cl)CS[C@H]12)c1ccccc1 [CEFACLOR ANHYDROUS],Marginally Active,3.4,>= 4,Inactive,0.4,>= 4,Inactive,0,< 4,Inactive,2.9,>= 4,1,1,Inactive,Active,6,>= 4,–
COC(=O)CCc1ccc(OCC(O)CNC(C)C)cc1 (stereo unspecified) [ESMOLOL],Inactive,0,< 4,Inactive,4.6,< 4,Inactive,0,< 4,Inactive,0,< 4,0,0,Inactive,Inactive,4.6,< 4,–
Clc1ccccc1CN1CCc2sccc2C1 [TICLOPIDINE],Inactive,0,< 4,Inactive,0,< 4,Inactive,0,< 4,Inactive,0,< 4,–,–,–,Inactive,0,< 4,Composite Activity - Active (Hepatotoxicity [5]; Liver): 0; Composite Activity - Marginal (Hepatotoxicity [5]; Liver): 0; Composite Activity - Score (Hepatotoxicity [5]; Liver): Inactive
CC(C)(C)NCC(O)COc1cccc2c1CC(O)C(O)C2 (stereo unspecified) [NADOLOL],Inactive,0.3,< 4,Inactive,0,< 4,Inactive,0,< 4,Inactive,0.7,>= 4,0,0,Inactive,Inactive,0.7,>= 4,–
CC(C)(C)NCC(O)COc1cccc2c1CCC(=O)N2 (stereo unspecified) [CARTEOLOL],Inactive,0,< 4,Inactive,0.5,< 4,Inactive,0,< 4,Inactive,0.5,< 4,0,0,Inactive,Inactive,0.5,< 4,–
CC(=O)[C@]1(O)Cc2c(O)c3c(c(O)c2[C@@H](O[C@H]2C[C@H](N)[C@H](O)[C@H](C)O2)C1)C(=O)c1ccccc1C3=O [IDARUBICIN],Inactive,0,< 4,Inactive,0,< 4,Inactive,0,< 4,Inactive,0,< 4,0,0,Inactive,Inactive,0,< 4,–
CC(=O)N1CCN(c2ccc(OCC3COC(Cn4ccnc4)(c4ccc(Cl)cc4Cl)O3)cc2)CC1 (stereo unspecified) [KETOCONAZOLE],Active,5.4,>= 4,Inactive,2.7,< 4,Inactive,0,< 4,Active,10.7,>= 4,3,0,Active,Active,14.7,>= 4,–
C[C@@H]1C[C@H]2[C@H]3[C@H]([C@@H](O)C[C@]2(C)[C@@]1(O)C(=O)CO)[C@@]1(C)C=CC(=O)C=C1C[C@H]3Cl [ALCLOMETASONE],Inactive,0,< 4,Inactive,0,< 4,Inactive,0,< 4,Inactive,0,< 4,0,0,Inactive,Inactive,0,< 4,–
CCc1cccc2c3c([nH]c12)C(CC)(CC(=O)O)OCC3 (stereo unspecified) [ETODOLAC],Inactive,0.8,>= 4,Inactive,0.6,>= 4,Inactive,0.8,>= 4,Inactive,1.4,>= 4,0,0,Inactive,Inactive,1.1,>= 4,–
CCN(CC)CCNC(=O)c1ccc(N)cc1 [PROCAINAMIDE],Inactive,0,< 4,Inactive,0,< 4,Inactive,0,< 4,Inactive,0,< 4,0,0,Inactive,Inactive,0,< 4,–
CCOC(=O)c1cncn1[C@H](C)c1ccccc1 [ETOMIDATE],Inactive,0,< 4,Inactive,0,< 4,Inactive,0,< 4,Inactive,0,< 4,0,0,Inactive,Inactive,0,< 4,–
CCCCCCCN(CC)CCCC(O)c1ccc(NS(C)(=O)=O)cc1 (stereo unspecified) [IBUTILIDE],Inactive,0,< 4,Inactive,0,< 4,Inactive,0,< 4,Inactive,0,< 4,0,0,Inactive,Inactive,0,< 4,–
